Key:
IL-8 mRNA = test: RT-qPCR quantification of IL-8 mRNA in TNF-α-induced IB3-1 cells; format: cell-based, human; details: Homo sapiens, IB3-1, 24 h, TNF-α-induced IB3-1 cells, RT-qPCR, na = not active at the used concentrations
Description: Monolayers of 60% confluent IB3-1 cells were seeded in 6- or 12-well plates in LHC-8 medium in the presence of 5% FBS. After 24 h, pure derivatives were added, 5 h before stimulation with TNF-α 80 ng/ml (ORF Genetics, Kopavogur, Iceland), and incubated for a further 24 h. Total RNA was extracted using TRIzol Reagent (Sigma-Aldrich, St. Louis, MO) following the manufacturer's instructions. Reverse transcription (RT) was performed using Reverse Transcription System kit (Promega, Madison, WI): 1 μg of total RNA was reverse transcribed in the presence of 5 mM MgCl2, 1X reverse transcription buffer (10 mM Tris-HCl, 50 mM KCl, and 0.1% Triton X-100), 1 mM each dNTPs, 20 U recombinant Rnasin Ribonuclease Inhibitor, 15 U AMV Reverse Transcriptase, and 0.5 μg oligo(dT)15 primers in a total volume of 20 μl for 10 min at 70°C and 60 min at 42°C. The resulting cDNA was quantified by relative quantitative real-time PCR (real-time qPCR). For real-time qPCR, 1 μl of cDNA was used for each SYBR Green reaction to quantify the relative expression of IL-8. Each 25 μl of total reaction volume contained 1 μl of cDNA, 10 pmol of primers, 1 iQTM SYBR Green Supermix (Bio-Rad Laboratories Inc., Hercules, CA). Real-time PCRs were performed for a total of 40 cycles (denaturation, 95°C for 10 s; annealing, 68°C for 30 s for IL-8, 65°C for 30 s for IL-6; elongation, 72°C for 60 s) using an iCycler IQ5 (Bio-Rad Laboratories Inc., Hercules, CA). Primer sequences were as follows: IL-8 forward: 5′-GTGCAGTTTTGCCAAGGAGT-3′ and IL-8 reverse: 5′-TTATGAATTCTCAGCCCTCTTCAAAAACTTCTC-3′. The relative proportions of each amplified template were determined utilizing the threshold cycle (CT) value for each performed PCR. The DDCt method was used to compare gene expression data. Each sample was quantified in duplicate. Changes in mRNA expression level were calculated following normalization with the GAPDH calibrator gene (housekeeping gene) and expressed as fold change over untreated samples [24]. Duplicates of negative controls (no template cDNA) were also run with every experimental plate to assess specificity and indicate potential contamination.
With the aim to study the effective anti-inflammatory properties of these new psoralen derivatives, we decided to further characterize the TMA derivatives for their potential activities on the expression of IL-8 gene, known to be involved in the lung inflammatory process in CF. […] More specifically, we were first interested in identifying compounds with low antiproliferative activity, but effective in downmodulating inflammatory gene expression without achieving a full suppression of these genes. We therefore employed IB3-1 cystic fibrosis cells, incubated for 5 h with two concentrations (1 μM and 10 μM) of selected compounds, and then treated with TNF-α ([…]). In the IB3-1 cystic fibrosis cellular model, NF-κB-dependent genes, including the gene encoding for the proinflammatory protein IL-8, generally are activated following infection with P. aeruginosa or treatment with TNF-α or IL-1β [26, 28, 31]. This feature is very important in the pathophysiology of CF, since several clinical complications are caused by exacerbation of this inflammatory response. After 1 day of incubation, cellular RNA was isolated for RT-qPCR analysis. All the TMA analogues found to be active in inhibiting NF-κB/DNA interactions were analyzed for their effects on inhibition of TNF-α-induced accumulation of IL-8 mRNA.

NF-κB p50 = molecular target: T1, NF-κB p50 (Homo sapiens, UniProt P19838); test: EMSA, inhibition of NF-κB/DNA interactions; format: binding; details: NF-κB p50 and 32P-labeled NF-κB oligonucleotide, MIC = minimal inhibitory concentration, 12.5 μM was the lowest concentration used
T1 construct: This assay was performed using purified NF-κB p50; purchased Promega
T1 sequence (P19838 1-433 limits assumed): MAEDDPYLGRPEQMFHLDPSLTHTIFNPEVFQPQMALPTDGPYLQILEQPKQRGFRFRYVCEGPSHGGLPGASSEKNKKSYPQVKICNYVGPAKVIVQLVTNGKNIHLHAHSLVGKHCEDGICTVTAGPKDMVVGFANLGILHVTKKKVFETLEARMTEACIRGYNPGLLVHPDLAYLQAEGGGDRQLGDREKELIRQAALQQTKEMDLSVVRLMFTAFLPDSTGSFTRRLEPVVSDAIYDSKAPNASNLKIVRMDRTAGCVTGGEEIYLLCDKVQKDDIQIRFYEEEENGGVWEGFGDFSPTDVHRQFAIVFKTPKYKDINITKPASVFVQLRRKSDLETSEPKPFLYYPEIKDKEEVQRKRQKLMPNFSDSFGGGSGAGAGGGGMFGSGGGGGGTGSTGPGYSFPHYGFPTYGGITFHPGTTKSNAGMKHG
Description: Electrophoretic mobility shift assays were performed using double-stranded ^32P-labeled oligonucleotides as target DNA. Binding reactions were set up as previously described in binding buffer (10% glycerol, 0.05% NP-40, 10 mM Tris-HCl pH 7.5, 50 mM NaCl, 0.5 mM DTT, and 10 mM MgCl2), in the presence of 0.1 μl/20 μl of NF-κB p50 (50 gsu) (Promega, Madison, WI, USA) and 0.25 ng of labeled oligonucleotide, in a total volume of 20 μl. After 30 min binding at room temperature, samples were electrophoresed at constant voltage (200 V for 30 min) through a low ionic strength (0.25 TBE buffer) (1 TBE/40.089 M Tris-borate, 0.002 M EDTA) on 6% polyacrylamide gels until the tracking dye (bromophenol blue) reached the bottom of a 16 cm slab. Gels were dried and exposed for autoradiography with intensifying screens at […]. In these experiments, DNA/protein complexes migrate through the gel with slower efficiency. In studies on the inhibitors of protein/DNA interactions, addition of the reagents was as follows: (i) nuclear factors, (ii) active principles, (iii) binding buffer, and (iv) labeled oligonucleotides mimicking the binding sites for TF to be modulated. The nucleotide sequence of double-stranded target DNA utilized in these experiments was 5′-CGC TGG GGA CTT TCC ACG G-3′ (sense strand, NF-κB). The synthetic oligonucleotides utilized in this study were purchased from Sigma Genosys (Sigma Genosys, Cambs, UK). To calculate the effective concentrations, three different autoradiograms obtained from different time exposures were scanned and compared to control EMSA performed without addition of angelicin analogues (two independent experiments were performed).
The effects of TMA derivatives on NF-κB- (nuclear factor-kappaB-) mediated induction of proinflammatory genes was verified first in vitro by electrophoretic mobility shift assay (EMSA) with the aim to verify and quantify the possible inhibition of NF-κB/DNA interactions. This assay was performed using purified NF-κB p50 and ^32P-labeled target NF-κB double-stranded oligonucleotide mimicking the NF-κB consensus sequence present within the IL-8 gene promoter.

Inhibition of NF-κB/DNA complex (MIC) (NF-κB p50): <12.5 (^∗) μM
Structure (SMILES): Cc1oc2c(C)cc3c(C)cc(=O)oc3c2c1C [Compound 1]
inhibition at 1 µM (IL-8 mRNA; 1 μM compound): 57%
inhibition at 10 µM (IL-8 mRNA; 10 μM compound): 56%

Source: paper PMC5635289, “Differential Effects of Angelicin Analogues on NF-κB Activity and IL-8 Gene Expression in Cystic Fibrosis IB3-1 Cells” (Mediators of Inflammation, 2017)
